The target of assay [1] is Insulin receptor-related protein (Homo sapiens) (UniProt P14616). Briefly: Inhibition of INSRR (unknown origin) assessed as remaining activity at 1 uM by Kinome scan method relative to control.
In assay [2] the target is Microtubule-associated serine/threonine-protein kinase 1 (Homo sapiens) (UniProt Q9Y2H9). Briefly: Inhibition of MAST1 (unknown origin) assessed as remaining activity at 1 uM by Kinome scan method relative to control.
The target in assay [3] is Dual specificity testis-specific protein kinase 1 (Homo sapiens) (UniProt Q15569). The experiment in a line: Inhibition of TESK1 (unknown origin) assessed as remaining activity at 1 uM by Kinome scan method relative to control.
Chain of Dual specificity testis-specific protein kinase 1 (Homo sapiens) (Q15569 whole entry, looked up): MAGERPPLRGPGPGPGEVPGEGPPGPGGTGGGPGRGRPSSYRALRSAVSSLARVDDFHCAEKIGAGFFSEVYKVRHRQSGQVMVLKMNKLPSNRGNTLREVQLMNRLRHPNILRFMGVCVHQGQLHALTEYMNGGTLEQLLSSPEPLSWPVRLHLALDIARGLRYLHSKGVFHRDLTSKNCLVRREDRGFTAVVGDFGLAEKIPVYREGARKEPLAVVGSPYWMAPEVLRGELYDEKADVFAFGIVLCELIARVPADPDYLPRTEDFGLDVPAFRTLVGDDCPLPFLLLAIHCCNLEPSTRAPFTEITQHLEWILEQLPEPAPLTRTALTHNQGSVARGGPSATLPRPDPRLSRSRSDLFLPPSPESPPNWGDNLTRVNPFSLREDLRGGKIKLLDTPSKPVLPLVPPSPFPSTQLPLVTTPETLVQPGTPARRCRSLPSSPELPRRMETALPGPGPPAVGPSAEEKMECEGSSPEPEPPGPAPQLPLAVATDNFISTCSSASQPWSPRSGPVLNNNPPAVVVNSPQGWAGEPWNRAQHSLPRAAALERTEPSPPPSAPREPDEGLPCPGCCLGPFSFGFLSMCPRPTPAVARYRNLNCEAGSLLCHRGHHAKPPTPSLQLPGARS
Assay [4] addresses STE20/SPS1-related proline-alanine-rich protein kinase (Homo sapiens) (UniProt Q9UEW8). The experiment in a line: Inhibition of STK39 (unknown origin) assessed as remaining activity at 1 uM by Kinome scan method relative to control.
For assay [5], the target named is T1, Serine/threonine-protein kinase D1 (Homo sapiens) (UniProt Q15139).
T1 sequence (whole entry): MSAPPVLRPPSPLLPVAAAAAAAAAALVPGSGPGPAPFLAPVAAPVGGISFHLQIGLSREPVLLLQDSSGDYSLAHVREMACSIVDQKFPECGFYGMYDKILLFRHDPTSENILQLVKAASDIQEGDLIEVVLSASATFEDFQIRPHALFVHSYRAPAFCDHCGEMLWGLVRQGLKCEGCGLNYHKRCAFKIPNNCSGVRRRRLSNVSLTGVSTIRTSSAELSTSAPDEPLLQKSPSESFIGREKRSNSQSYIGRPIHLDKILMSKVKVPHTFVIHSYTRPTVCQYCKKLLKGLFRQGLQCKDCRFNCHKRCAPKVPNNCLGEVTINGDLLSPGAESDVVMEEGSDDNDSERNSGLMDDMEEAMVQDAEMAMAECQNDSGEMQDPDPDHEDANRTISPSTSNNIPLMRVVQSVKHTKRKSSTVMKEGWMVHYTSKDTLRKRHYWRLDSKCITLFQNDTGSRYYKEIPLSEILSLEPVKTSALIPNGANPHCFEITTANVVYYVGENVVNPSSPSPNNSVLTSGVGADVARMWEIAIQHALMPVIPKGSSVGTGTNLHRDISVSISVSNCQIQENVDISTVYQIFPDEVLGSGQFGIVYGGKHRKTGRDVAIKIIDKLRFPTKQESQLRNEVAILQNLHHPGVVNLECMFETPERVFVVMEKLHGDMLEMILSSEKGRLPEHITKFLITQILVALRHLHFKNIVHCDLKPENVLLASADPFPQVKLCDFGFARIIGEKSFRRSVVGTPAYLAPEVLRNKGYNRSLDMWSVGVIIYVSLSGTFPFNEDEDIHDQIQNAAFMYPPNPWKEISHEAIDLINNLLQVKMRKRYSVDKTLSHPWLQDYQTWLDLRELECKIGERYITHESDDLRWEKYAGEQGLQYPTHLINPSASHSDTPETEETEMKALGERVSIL
The experiment in a line: Inhibition of PRKD1 (unknown origin) assessed as remaining activity at 1 uM by Kinome scan method relative to control.

Assay [6] concerns the target T2, Serine/threonine-protein kinase NLK (Homo sapiens) (UniProt Q9UBE8).
T2 sequence (whole entry): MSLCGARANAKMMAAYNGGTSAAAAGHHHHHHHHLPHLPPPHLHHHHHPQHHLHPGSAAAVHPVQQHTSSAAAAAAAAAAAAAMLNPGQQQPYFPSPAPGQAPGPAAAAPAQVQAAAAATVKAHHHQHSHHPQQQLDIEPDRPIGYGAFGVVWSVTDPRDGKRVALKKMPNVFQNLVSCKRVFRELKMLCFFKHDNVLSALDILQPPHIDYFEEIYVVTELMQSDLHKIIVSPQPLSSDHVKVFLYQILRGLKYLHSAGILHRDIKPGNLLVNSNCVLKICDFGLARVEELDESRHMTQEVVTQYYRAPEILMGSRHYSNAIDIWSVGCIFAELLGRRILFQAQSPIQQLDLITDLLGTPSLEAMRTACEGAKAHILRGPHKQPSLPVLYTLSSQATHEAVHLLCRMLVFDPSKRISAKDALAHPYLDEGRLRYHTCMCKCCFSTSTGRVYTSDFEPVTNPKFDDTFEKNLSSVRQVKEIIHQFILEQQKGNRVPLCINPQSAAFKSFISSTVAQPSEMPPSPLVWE
Briefly: Inhibition of NLK (unknown origin) assessed as remaining activity at 1 uM by Kinome scan method relative to control.

For assay [7], the target named is T3, MAP/microtubule affinity-regulating kinase 4 (Homo sapiens) (UniProt Q96L34).
T3 sequence (whole entry): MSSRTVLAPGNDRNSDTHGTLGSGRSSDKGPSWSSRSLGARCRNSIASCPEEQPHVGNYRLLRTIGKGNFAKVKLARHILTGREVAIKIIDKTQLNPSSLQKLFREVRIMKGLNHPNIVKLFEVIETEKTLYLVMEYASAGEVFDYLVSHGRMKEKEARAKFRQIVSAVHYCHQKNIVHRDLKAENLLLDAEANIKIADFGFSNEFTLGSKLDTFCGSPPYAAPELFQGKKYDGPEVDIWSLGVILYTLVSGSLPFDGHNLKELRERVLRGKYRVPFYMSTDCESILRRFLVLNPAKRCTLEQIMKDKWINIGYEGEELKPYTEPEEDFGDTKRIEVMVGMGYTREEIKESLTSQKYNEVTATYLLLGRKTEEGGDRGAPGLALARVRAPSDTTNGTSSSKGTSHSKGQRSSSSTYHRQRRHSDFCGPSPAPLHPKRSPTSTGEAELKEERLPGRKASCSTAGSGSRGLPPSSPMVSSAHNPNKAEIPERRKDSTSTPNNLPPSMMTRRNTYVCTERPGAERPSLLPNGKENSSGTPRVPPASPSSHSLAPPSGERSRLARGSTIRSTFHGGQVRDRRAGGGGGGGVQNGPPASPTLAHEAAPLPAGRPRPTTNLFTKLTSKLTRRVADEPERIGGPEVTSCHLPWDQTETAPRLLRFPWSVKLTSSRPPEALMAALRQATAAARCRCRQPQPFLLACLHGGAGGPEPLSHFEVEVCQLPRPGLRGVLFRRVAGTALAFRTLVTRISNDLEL
The experiment in a line: Inhibition of MARK4 (unknown origin) assessed as remaining activity at 1 uM by Kinome scan method relative to control.

Assay [8] has as its target Dual specificity tyrosine-phosphorylation-regulated kinase 1A (Homo sapiens) (UniProt Q13627). The experiment in a line: Inhibition of DYRK1A (unknown origin) assessed as remaining activity at 1 uM by Kinome scan method relative to control.
The target in assay [9] is Activin receptor type-2A (Homo sapiens) (UniProt P27037). The experiment in a line: Inhibition of ACVR2A (unknown origin) assessed as remaining activity at 1 uM by Kinome scan method relative to control.
Chain of Activin receptor type-2A (Homo sapiens) (P27037 whole entry): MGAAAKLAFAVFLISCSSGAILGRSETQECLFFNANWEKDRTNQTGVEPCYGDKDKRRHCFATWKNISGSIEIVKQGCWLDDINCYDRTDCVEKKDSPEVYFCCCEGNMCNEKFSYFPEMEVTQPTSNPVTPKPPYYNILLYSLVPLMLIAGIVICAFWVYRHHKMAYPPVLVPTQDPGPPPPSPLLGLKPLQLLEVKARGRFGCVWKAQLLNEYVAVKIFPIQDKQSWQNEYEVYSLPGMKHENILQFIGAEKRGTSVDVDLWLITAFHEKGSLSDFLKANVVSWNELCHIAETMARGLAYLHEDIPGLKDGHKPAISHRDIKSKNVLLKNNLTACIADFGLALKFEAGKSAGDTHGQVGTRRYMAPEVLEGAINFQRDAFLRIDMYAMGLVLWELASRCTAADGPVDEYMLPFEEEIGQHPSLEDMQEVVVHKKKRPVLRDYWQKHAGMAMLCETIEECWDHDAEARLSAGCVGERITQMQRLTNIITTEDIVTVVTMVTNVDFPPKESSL
Assay [10] concerns the target Serine/threonine-protein kinase LATS1 (Homo sapiens) (UniProt O95835). Briefly: Inhibition of LATS1 (unknown origin) assessed as remaining activity at 1 uM by Kinome scan method relative to control.
The target of assay [11] is Serine/threonine-protein kinase PLK3 (Homo sapiens) (UniProt Q9H4B4). Briefly: Inhibition of PLK3 (unknown origin) assessed as remaining activity at 1 uM by Kinome scan method relative to control.
Chain of Serine/threonine-protein kinase PLK3 (Homo sapiens) (Q9H4B4 whole entry, looked up): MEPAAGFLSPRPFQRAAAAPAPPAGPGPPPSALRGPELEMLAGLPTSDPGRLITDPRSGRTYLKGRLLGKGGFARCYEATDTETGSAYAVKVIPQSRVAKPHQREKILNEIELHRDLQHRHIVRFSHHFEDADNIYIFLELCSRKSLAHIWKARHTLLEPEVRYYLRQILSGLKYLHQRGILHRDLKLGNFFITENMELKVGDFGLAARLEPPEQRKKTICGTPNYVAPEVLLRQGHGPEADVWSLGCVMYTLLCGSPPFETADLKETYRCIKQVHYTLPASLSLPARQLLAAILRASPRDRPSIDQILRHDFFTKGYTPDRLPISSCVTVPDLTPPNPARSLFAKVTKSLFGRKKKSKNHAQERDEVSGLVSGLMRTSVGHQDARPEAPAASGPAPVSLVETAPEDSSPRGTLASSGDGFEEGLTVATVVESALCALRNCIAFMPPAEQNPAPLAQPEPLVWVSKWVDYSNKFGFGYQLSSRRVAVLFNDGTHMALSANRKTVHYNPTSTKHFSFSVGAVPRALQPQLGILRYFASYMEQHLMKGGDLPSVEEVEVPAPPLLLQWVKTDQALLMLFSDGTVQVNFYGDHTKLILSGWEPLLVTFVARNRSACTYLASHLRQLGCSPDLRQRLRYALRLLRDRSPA

Chain of Insulin receptor-related protein (Homo sapiens) (P14616 27-742 limits assumed): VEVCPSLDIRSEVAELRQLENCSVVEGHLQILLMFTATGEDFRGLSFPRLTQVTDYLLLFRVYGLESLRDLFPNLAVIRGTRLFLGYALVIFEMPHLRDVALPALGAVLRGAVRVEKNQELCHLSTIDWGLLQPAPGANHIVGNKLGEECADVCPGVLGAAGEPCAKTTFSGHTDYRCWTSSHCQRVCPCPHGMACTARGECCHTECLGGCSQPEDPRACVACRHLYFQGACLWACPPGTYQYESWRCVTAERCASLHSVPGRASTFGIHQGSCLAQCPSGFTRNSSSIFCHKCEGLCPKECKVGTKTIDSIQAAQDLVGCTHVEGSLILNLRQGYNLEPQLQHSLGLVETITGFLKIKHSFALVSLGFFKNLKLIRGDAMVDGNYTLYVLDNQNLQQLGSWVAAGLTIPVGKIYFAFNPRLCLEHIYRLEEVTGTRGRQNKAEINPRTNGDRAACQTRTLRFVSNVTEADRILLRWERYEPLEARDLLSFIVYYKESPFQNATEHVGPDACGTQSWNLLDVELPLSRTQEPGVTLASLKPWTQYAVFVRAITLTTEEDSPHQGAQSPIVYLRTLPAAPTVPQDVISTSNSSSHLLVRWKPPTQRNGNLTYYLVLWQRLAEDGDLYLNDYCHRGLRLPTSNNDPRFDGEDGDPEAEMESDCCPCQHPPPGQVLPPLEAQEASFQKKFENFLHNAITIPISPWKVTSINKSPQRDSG
Chain of Insulin receptor-related protein (Homo sapiens) (P14616 747-1297 limits assumed): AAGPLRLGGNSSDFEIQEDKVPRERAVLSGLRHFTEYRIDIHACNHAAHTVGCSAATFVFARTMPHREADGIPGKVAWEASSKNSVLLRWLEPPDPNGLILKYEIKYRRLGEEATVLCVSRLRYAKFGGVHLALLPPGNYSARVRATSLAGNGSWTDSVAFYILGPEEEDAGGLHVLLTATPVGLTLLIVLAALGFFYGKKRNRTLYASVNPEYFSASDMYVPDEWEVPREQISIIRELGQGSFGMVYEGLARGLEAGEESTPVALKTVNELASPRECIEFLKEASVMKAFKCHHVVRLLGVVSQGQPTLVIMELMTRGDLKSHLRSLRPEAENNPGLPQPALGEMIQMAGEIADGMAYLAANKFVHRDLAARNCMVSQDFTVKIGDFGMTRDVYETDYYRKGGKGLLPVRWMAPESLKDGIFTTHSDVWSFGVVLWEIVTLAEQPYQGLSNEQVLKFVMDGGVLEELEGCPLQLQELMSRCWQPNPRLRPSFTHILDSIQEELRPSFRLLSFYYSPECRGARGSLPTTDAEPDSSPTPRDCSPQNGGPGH
Chain of Microtubule-associated serine/threonine-protein kinase 1 (Homo sapiens) (Q9Y2H9 whole entry, looked up): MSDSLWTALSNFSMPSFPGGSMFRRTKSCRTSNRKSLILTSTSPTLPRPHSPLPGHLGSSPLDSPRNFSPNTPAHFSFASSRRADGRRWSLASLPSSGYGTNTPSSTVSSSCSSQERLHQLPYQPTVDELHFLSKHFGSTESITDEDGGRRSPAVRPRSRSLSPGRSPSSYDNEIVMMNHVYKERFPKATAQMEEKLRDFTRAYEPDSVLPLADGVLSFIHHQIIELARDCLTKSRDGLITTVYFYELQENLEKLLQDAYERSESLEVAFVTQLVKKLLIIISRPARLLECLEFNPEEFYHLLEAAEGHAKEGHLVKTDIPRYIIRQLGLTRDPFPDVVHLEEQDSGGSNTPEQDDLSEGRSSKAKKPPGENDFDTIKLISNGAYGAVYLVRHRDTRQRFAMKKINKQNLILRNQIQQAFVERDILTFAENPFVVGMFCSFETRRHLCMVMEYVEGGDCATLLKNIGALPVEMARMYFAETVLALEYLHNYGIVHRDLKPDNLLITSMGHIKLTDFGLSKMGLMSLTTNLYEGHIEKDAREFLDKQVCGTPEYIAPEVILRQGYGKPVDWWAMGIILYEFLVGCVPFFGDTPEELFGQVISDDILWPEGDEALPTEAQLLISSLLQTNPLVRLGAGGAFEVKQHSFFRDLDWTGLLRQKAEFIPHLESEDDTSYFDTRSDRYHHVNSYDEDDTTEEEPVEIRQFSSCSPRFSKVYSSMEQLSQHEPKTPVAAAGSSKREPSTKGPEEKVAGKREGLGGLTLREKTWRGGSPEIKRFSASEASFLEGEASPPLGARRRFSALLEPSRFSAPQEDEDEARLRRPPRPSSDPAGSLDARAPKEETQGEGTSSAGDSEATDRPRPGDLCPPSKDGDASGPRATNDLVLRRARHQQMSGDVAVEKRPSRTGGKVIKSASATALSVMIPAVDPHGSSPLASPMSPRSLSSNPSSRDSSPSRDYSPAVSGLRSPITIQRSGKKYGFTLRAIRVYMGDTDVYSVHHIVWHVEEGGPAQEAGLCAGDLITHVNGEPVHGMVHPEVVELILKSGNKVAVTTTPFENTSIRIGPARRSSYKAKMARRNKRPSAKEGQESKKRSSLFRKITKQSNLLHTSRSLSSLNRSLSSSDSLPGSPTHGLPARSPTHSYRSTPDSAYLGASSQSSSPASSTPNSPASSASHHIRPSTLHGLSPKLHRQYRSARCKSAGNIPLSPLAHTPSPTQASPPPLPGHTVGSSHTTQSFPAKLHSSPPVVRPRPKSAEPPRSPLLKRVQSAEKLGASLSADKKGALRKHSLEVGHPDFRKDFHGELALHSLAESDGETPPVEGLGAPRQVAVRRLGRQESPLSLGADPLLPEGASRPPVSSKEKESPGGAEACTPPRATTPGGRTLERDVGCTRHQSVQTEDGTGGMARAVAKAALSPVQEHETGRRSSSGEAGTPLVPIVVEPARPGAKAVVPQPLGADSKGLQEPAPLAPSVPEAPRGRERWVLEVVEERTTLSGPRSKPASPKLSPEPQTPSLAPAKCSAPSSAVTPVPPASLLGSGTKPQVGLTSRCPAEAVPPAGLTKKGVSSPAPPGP

As to `Nc1ccccc1Nc1ccc2c(c1)CCc1ccccc1C2=O`, the Activity in assay [1] is 88%; in assay [2] it was 79%; in assay [3] it was 90%; in assay [4] it was 77%; in assay [5], 91%; in assay [6], 87%. Besides, the Activity worked out at 90% in [7]; 92% in assay [8]; 96% in [9]; 96% in assay [10]; 97% in assay [11].
In the case of `O=C1c2ccc(Nc3ccc(F)cc3F)cc2CCc2ccc(OC[C@H](O)CO)cc21` [Skepinone-L], the Activity worked out at 100% in assay [1]; 85% in assay [2]; 100% in assay [3]; 93% in assay [4]; 100% in assay [5]; 96% in assay [6]. Further, the Activity is 100% in [7]; 98% in assay [8]; 95% in assay [9]; 90% in assay [10]; 100% in assay [11].

Source of the values: ChEMBL document CHEMBL5696441 (Nat Chem Biol, 2011).
